We go through 14 compounds from patent US8207329B2, “Synthesis of chlorins and phorbines with enhanced red spectral features” (North Carolina State University, priority 2005, dated 2012).

“And” between values parts separate entries of the source, which are not always exact repeats. Identical values can stand only once. Like-named read-outs stand apart in the source and are kept apart here.

A short description of series [1]: Absorption spectra obtained in toluene at room temperature. The following applies: for redshift of the Qy band: Example 1, versus benchmark chlorin lacking the 13-substituent (Zn-11 or 11); for Qy band: figure legends (FIG. 1, 2, 4, 5), toluene at room temperature, normalized at the B bands. The class given is physicochemical.
Excerpt: (§1) Absorption Spectra. The spectral properties of interest in the chlorins include the position of the long-wavelength Qy transition, the intensity of the Qy transition, and the fluorescence quantum yield of the chlorin. The intensity of the Qy transition can be assessed by the measured molar absorption coefficient; however, comparisons of such values are somewhat unreliable given the experimental variability encountered upon handling small quantities of materials. A better comparison is achieved by examination of the ratio of the intensities of the B and Qy bands for a given compound (B/Qy ratio), which is determined simply by absorption spectroscopy without requiring determination of the molar absorption coefficient. For a wide variety of applications, bathochromic and hyperchromic shifts of the Qy band are desired (i.e., shifted to longer wavelength and intensified), thereby affording strong absorption in the deep-red region.
General. ^1H NMR (400 MHz) and ^13C NMR (75 MHz) spectra were collected at room temperature in CDCl3. Absorption spectra were obtained in toluene at room temperature. Chlorins were analyzed by laser desorption mass spectrometry (LD-MS) in the absence of a matrix. Fast atom bombardment mass spectrometry (FAB-MS) data are reported for the molecule ion or protonated molecule ion. Melting points are uncorrected. All commercially available materials were used as received. All palladium-coupling reactions were carried out using standard Schlenk-line techniques.
as §1, with “B. Absorption” for “Absorption”, “Spectroscopy.” for “Spectra.”, “increased” for “intensified), thereby affording strong absorption”, “intensity).” for “the deep-red region.”
General. ^1H NMR (400 MHz) and ^13C NMR (75 MHz) spectra were collected at room temperature in CDCl3 unless noted otherwise. Absorption spectra were obtained in toluene at room temperature. Chlorins were analyzed by laser desorption mass spectrometry (LD-MS) in the absence of a matrix. Metalation of free base chlorins was monitored by fluorescence spectroscopy. Melting points are uncorrected. All commercially available materials were used as received.

Series [2] can be described thus: Fluorescence spectra and fluorescence quantum yields in toluene at room temperature. The class given is physicochemical. The following applies: for fluorescence quantum yield (Φf): standard Zn-11 (Φf=0.065). How it is done: Fluorescence Spectroscopy. The fluorescence spectra and fluorescence quantum yields reported herein were collected in toluene at room temperature. Measurements of fluorescence quantum yield (Φf) were carried out using chlorin Zn-11 (Φf=0.065) as a standard (Strachan, J.-P. et al., J. Org. Chem. 2000, 65, 3160-3172).

Series [3] is described as follows: Stability on storage and handling. The class given is physicochemical. The note with it: for decomposes almost completely in solution within: in solution (such as in ethyl acetate or chlorinated solvent) even at 0° C.; for powdered solid stored without decomposition: in the refrigerator.
The conditions of series [4]: cited from earlier work; for Qy band / εQy: chlorophylls; for Qy band: FIG. 3, in diethyl ether at room temperature; for εQy: Strain and Svec (FIG. 3).
The conditions of series [5]: comparison values, Strachan et al.; cited from earlier work.
Setting [6] is: Table 1, in toluene at room temperature.
Setting [7] is: Table 1, literature value, in diethyl ether.
Setting [8] is: Table 3, zinc chlorins in toluene at room temperature.
Where [9] appears, read: Table 3, Ref Jones et al., in diethyl ether.

`CC(=O)c1cc2[nH]c1cc1nc(cc3ccc([nH]3)c(-c3ccc(C)cc3)c3nc(c2-c2c(C)cc(C)cc2C)C=C3)C(C)(C)C1` [compound 8, 13-Acetyl-17,18-dihydro-10-mesityl-18,18-dimethyl-5-p-tolylporphyrin]: in series [1] (setting [6]), the B/Qy intensity ratio was found to be 2.3; the “Log ε (M^−1cm^−1) (Qy band)” value came out at 4.67 M^−1cm^−1; the “λmax (nm), B” value stood at 422 nm; the “λmax (nm), Qy” value is reported as 661 nm. Also, in series [2], the “strong / dominant Qy(0,0) fluorescence band” value is on record as “approximately 668 nm”; the “weak emission feature / broad weak band” value is ~711 nm and ~744 nm; the “fluorescence quantum yield (Φf)” value is listed as 0.23.

Take `Cc1cc(C)c(C(c2ccc(C=O)[nH]2)c2cc(Br)c(Br)[nH]2)c(C)c1` (centres unmarked) [compound 16, 8,9-Dibromo-1-formyl-5-mesityldipyrromethane]: in series [3], the “decomposes almost completely in solution within” value was 18 to 20 h and the “powdered solid stored without decomposition” value was 5 to 7 days.

As for `C=Cc1c(C)c2cc3nc(c4c5[n-]c(cc6nc(cc1[n-]2)C(C=O)=C6CC)c(C)c5C(=O)[C@@H]4C(=O)OC)[C@@H](CCC(=O)OC/C=C(\C)CCC[C@H](C)CCC[C@H](C)CCCC(C)C)[C@@H]3C.[Mg+2]` [chlorophyll b], in series [4], the Qy band is 642 nm and 644 nm; the εQy is 56,100 M^−1cm^−1.

In the case of pheophytin a, in series [4] (setting [7]), the B/Qy intensity ratio is 2.1; the “Log ε (M^−1cm^−1) (Qy band)” value is given as 5.12; the “λmax (nm), B” value is on record as 408 nm; the “λmax (nm), Qy” value is 667 nm.

For the compound `Cc1ccc(C(=O)c2ccc(C(c3cc(Br)c(Br)[nH]3)c3c(C)cc(C)cc3C)[nH]2)cc1` (centres unmarked) [compound 4, 8,9-Dibromo-5-mesityl-1-(4-methylbenzoyl)dipyrromethane], the “decomposes almost completely in solution within” value in series [3] is 8 to 10 h. Also, the “decomposed almost completely in solution within” value in series [3] (purified compound in solution even at 0° C.) was in the range of 8 to 10 h. Further, the “powdered solid stable on storage without decomposition” value in series [3] (storage at −10° C.) is 1 to 2 days.

In the case of `C=Cc1c(C)c2cc3nc(c4c5[n-]c(cc6nc(cc1[n-]2)C(C)=C6CC)c(C)c5C(=O)[C@@H]4C(=O)OC)[C@@H](CCC(=O)OC/C=C(\C)CCC[C@H](C)CCC[C@H](C)CCCC(C)C)[C@@H]3C.[Mg+2]` [chlorophyll a], in series [4] (setting [7]), the B/Qy intensity ratio is 1.3; the “λmax (nm), B” value is 430 nm; the “λmax (nm), Qy” value is 662 nm. In series [4] (chlorophyll a, text (FIG. 3)), the B band is reported as 430 nm. Further, in series [4], the Qy band was 662 nm and the εQy is recorded as 86,300 M^−1cm^−1.

On to `Cc1ccc(-c2c3nc(c(-c4c(C)cc(C)cc4C)c4cc5c([nH]4)c(c4nc(cc6ccc2[nH]6)C(C)(C)C4)CC5=O)C=C3)cc1` [compound 10, 18,18-Dimethyl-10-mesityl-13^1-oxo-5-p-tolylphorbine], for which, in series [5], the “fluorescence quantum yield (Φf)” value was 0.29. Also, the “redshift of the Qy band” value in series [1] (toluene) is listed as 19 nm. Also, in series [1] (setting [6]), the B/Qy intensity ratio stood at 2.5; the “λmax (nm), B” value turned out to be 417 nm; the “λmax (nm), Qy” value was 660 nm. The same compound returned a Qy band in series [1] of 660 nm.

Consider `CC(=O)CC(C)(C)C(Cc1ccc[nH]1)[N+](=O)[O-]` (centres unmarked) [compound 19, 4,4-Dimethyl-5-nitro-6-(1H-pyrrol-2-yl)hexan-2-one], for which, in series [3] (neat or in solution, at room temperature), the “colour change from yellow to black indicating partial decomposition” value was in the range of 1 to 2 days.

Take `CCCCB(CCCC)n1c(C(=O)c2ccc(C)cc2)ccc1C(c1ccc[nH]1)c1c(C)cc(C)cc1C` (centres unmarked) [Bu2B-3, 10-(Dibutylboryl)-5-mesityl-1-p-toluoyldipyrromethane]: in series [3], the “stability (in words)” value is on record as “decomposes partially at room temperature”.

On to `C=Cc1cc2[n]3c1C=C1C=CC(=N1)C(c1c(C)cc(C)cc1C)=c1ccc([n]1[Zn]3)=CC1=NC(=C2)C(C)(C)C1` [ZnC-V^3M^10, Zn(II)-17,18-Dihydro-10-mesityl-18,18-dimethyl-3-vinylporphyrin], for which, in series [1] (Table 3, redshift relative to the parent chlorin (ZnC or Zn—M^10), toluene), the “ΔνQy” value came out at 400 cm⁻¹. Besides, in series [1] (setting [8]), the B/Qy ratio is reported as 3.3; the “λmax (nm), B” value amounted to 413 nm; the “λmax (nm), Qy” value worked out at 621 nm.

Consider `C=Cc1c(C)c2cc3nc(c4c5[n-]c(cc6nc(cc1[n-]2)C(C=O)=C6CC)c(C)c5C(=O)[C@@H]4C(=O)OC)[C@@H](CCC(=O)OC/C=C(\C)CCC[C@H](C)CCC[C@H](C)CCCC(C)C)[C@@H]3C.[Zn+2]` [Zn-chlorophyll b], for which, in series [4] (setting [7]), the B/Qy intensity ratio is recorded as 2.9; the “λmax (nm), B” value was 446 nm; the “λmax (nm), Qy” value is 634 nm. In series [4] (setting [9]), the B/Qy ratio is reported as 2.9; the “λmax (nm), B” value was 446 nm; the “λmax (nm), Qy” value was 634 nm.

Turning to `O=Cc1ccc(Cc2cc(Br)c(Br)[nH]2)[nH]1` [compound 14, 8,9-Dibromo-1-formyldipyrromethane], in series [3], the “powdered solid stored without decomposition” value is recorded as 2-3 weeks.

On to `CC(=O)c1cc2[n-]c1cc1nc(cc3ccc([n-]3)c(-c3ccc(C)cc3)c3nc(c2-c2c(C)cc(C)cc2C)C=C3)C(C)(C)C1.[Cu+2]` [Cu-8, Cu(II)-13-Acetyl-17,18-dihydro-10-mesityl-18,18-dimethyl-5-p-tolylporphyrin], for which, in series [1] (setting [6]), the B/Qy intensity ratio is reported as 3.1; the “Log ε (M^−1cm^−1) (Qy band)” value worked out at 4.69 M^−1cm^−1; the “λmax (nm), B” value is reported as 420 nm; the “λmax (nm), Qy” value is recorded as 631 nm.

For `CC(=O)c1cc2[n]3c1=CC1=NC(=Cc4ccc([n]4[Zn]3)C(c3ccc(C)cc3)=C3C=CC(=N3)C=2c2c(C)cc(C)cc2C)C(C)(C)C1` [Zn-8, Zn(II)-13-Acetyl-17,18-dihydro-10-mesityl-18,18-dimethyl-5-p-tolylporphyrin], in series [1] (toluene), the “redshift of the Qy band” value is 27 nm. Moreover, in series [1] (setting [6]), the B/Qy intensity ratio is 2.9; the “Log ε (M^−1cm^−1) (Qy band)” value came out at 4.75 M^−1cm^−1; the “λmax (nm), B” value is recorded as 424 nm; the “λmax (nm), Qy” value came out at 635 nm. Besides, in series [1], the Qy band was found to be 632 nm. In series [2], the “strong / dominant Qy(0,0) fluorescence band” value was “around 641 nm”, the “weak emission feature / broad weak band” value is 670-720 nm and the “fluorescence quantum yield (Φf)” value is recorded as 0.24.
